Data as given in paper PMC6009913, “N-aryl 2-aryloxyacetamides as a new class of fatty acid amide hydrolase (FAAH) inhibitors” (Journal of Enzyme Inhibition and Medicinal Chemistry, 2017).
≈ marks a conversion by molar mass, not a printed value. Like-named read-outs stand apart in the source and are kept apart here.

Columns and labels:
[1] = target: T1, FAAH (Rattus norvegicus, UniProt P97612); assay: FAAH inhibition, hydrolysis of 0.5 µM [3H]AEA in rat brain homogenates; format: biochemical; conditions: for Maximum inhibition: maximal attainable inhibition according to preferred curve fit, mean ± standard error; for effect of pre-incubation on inhibition curve (time dependence): 60 vs. 0 min of pre-incubation
T1 construct: using rat brain homogenates as enzyme source; from tissue; host or cells: rat brain homogenate
T1 sequence (P97612 1-579): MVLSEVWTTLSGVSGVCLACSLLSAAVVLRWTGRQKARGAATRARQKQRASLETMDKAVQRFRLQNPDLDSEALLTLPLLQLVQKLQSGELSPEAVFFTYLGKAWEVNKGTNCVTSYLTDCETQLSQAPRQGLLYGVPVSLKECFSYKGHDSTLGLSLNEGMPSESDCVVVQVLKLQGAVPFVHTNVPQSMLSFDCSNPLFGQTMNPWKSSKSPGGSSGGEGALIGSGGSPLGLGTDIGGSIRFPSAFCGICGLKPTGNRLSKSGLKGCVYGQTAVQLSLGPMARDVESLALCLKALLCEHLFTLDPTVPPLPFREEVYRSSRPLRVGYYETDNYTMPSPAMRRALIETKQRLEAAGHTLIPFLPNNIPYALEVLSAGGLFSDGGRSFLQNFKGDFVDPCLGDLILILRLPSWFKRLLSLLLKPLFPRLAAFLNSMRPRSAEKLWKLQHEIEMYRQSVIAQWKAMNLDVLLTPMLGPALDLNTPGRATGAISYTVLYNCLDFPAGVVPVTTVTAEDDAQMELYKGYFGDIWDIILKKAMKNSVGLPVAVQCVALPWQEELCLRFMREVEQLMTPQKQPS

[2] = thermodynamic aqueous solubility in phosphate-buffered saline; format: physicochemical; conditions: aqueous buffer, thermodynamic from solid; phosphate-buffered saline 10 mM, pH 7.48, 37 °C
[3] = tested on: FAAH; parameters: method as in PMID 21502526; conditions: reported; cited from earlier work
[4] = tested on: FAAH; parameters: method as in PMID 12461523; conditions: previously reported data; cited from earlier work
[5] = 60-min pre-incubation with enzyme

Row | Structure (SMILES) | Maximum inhibition ([1]; no pre-incubation) [%] | further results
1 | O=C(COc1ccc(C2CCCCC2)cc1)Nc1ccccc1-c1nc2ncccc2o1 [4b, 2-(4-Cyclohexylphenoxy)-N-(2-(oxazolo[4,5-b]pyridin-2-yl)phenyl)acetamide] | −1 ± 3 | 
2 | O=C(COc1ccc(C2CCCCC2)cc1)Nc1cccc(-c2nc3ncccc3[nH]2)c1 [4p, N-(3-(1H-imidazo[4,5-b]pyridin-2-yl)phenyl)-2-(4-cyclohexylphenoxy)acetamide] | 100 | 
3 | O=C(COc1ccc(C2CCCCC2)cc1)Nc1ccccc1-c1nc2ncccc2[nH]1 [4m, N-(2-(1H-imidazo[4,5-b]pyridin-2-yl)phenyl)-2-(4-cyclohexylphenoxy)acetamide] | 82 ± 3 | effect of pre-incubation on inhibition curve (time dependence) [1]: reduced maximal inhibition; solubility thermodynamic [2]: 3 to 20 µM (≈ 1.28 to 8.53 µg/mL)
4 | CCC/C=C/COCC(=O)Nc1ccc(-c2nc3ncccc3[nH]2)cc1 [4t, (E)-N-(4-(1H-imidazo[4,5-b]pyridin-2-yl)phenyl)-2-(hex-2-en-1-yloxy)acetamide] | 100 | IC50 [1, 5]: 43000 nM; effect of pre-incubation on inhibition curve (time dependence) [1]: A small degree of time-dependent inhibition; IC50 ([1]; rat brain homogenates, 0.5 µM [3H]AEA, no pre-incubation, pooled from three independent experiments, 5–7 concentrations): 64000 nM
5 | CCC/C=C/COCC(=O)Nc1cccc(-c2nc3ncccc3o2)c1 [4h, (E)-2-(hex-2-en-1-yloxy)-N-(3-(oxazolo[4,5-b]pyridin-2-yl)phenyl)acetamide] | 100 | 
6 | O=C(COc1ccc(C2CCCCC2)cc1)Nc1ccc(-c2nc3ncccc3[nH]2)cc1 [4s, N-(4-(1H-imidazo[4,5-b]pyridin-2-yl)phenyl)-2-(4-cyclohexylphenoxy)acetamide] | 62 ± 4 | effect of pre-incubation on inhibition curve (time dependence) [1]: essentially identical inhibition curves; solubility thermodynamic [2]: 3 µM (≈ 1.28 µg/mL)
7 | CCC/C=C/COCC(=O)Nc1ccccc1-c1nc2ncccc2o1 [4c, (E)-2-(hex-2-en-1-yloxy)-N-(2-(oxazolo[4,5-b]pyridin-2-yl)phenyl)acetamide] | 7 ± 3 | 
8 | O=C(COc1ccc(C2CCCCC2)cc1)Nc1ccc(-c2nc3ncccc3o2)cc1 [4j, 2-(4-Cyclohexylphenoxy)-N-(4-(oxazolo[4,5-b]pyridin-2-yl)phenyl)acetamide] | 19 ± 10 | 
9 | CCn1c(=O)n([C@H]2CCCN(c3nccc(-c4cc5ccccc5o4)n3)C2)c2ccccc21 [crystal ligand, 1-{(3S)-1-[4–(1-benzofuran-2-yl)pyrimidin-2-yl]piperidin-3-yl}-3-ethyl-1,3-dihydro-2H-benzimidazol-2-one] |  | IC50 [3]: 100 nM
10 | O=C(COc1ccc(-c2ccccc2)cc1)Nc1cccc(-c2nc3ncccc3o2)c1 [4f, 2-([1,1′-Biphenyl]-4-yloxy)-N-(3-(oxazolo[4,5-b]pyridin-2-yl)phenyl)acetamide] |  | solubility thermodynamic [2]: 3 to 20 µM (≈ 1.26 to 8.43 µg/mL)
11 | CC(C)c1ccc(OCC(=O)Nc2cccc(-c3nc4ncccc4o3)c2)cc1 [4e, 2-(4-Isopropylphenoxy)-N-(3-(oxazolo[4,5-b]pyridin-2-yl)phenyl)acetamide] | 100 | 
12 | O=C(COc1ccc(-c2ccccc2)cc1)Nc1ccc(-c2nc3ncccc3o2)cc1 [4i, 2-([1,1′-Biphenyl]-4-yloxy)-N-(4-(oxazolo[4,5-b]pyridin-2-yl)phenyl)acetamide] | 75 ± 4 | IC50 [1, 5]: 280 nM; maximum observed inhibition [1, 5]: 39 ± 2%; solubility thermodynamic [2]: 18 µM (≈ 7.59 µg/mL)
13 | O=C(COc1ccc(-c2ccccc2)cc1)Nc1ccccc1-c1nc2ncccc2[nH]1 [4l, N-(2-(1H-imidazo[4,5-b]pyridin-2-yl)phenyl)-2-([1,1'-biphenyl]-4-yloxy)acetamide] | 70 ± 2 | effect of pre-incubation on inhibition curve (time dependence) [1]: reduced maximal inhibition
14 | O=C(COc1ccc(-c2ccccc2)cc1)Nc1ccccc1-c1nc2ncccc2o1 [4a, 2-([1,1′-Biphenyl]-4-yloxy)-N-(2-(oxazolo[4,5-b]pyridin-2-yl)phenyl)acetamide] | 3 ± 5 | 
15 | NC(=O)c1cccc(-c2cccc(OC(=O)NC3CCCCC3)c2)c1 [URB597] |  | IC50 [4]: 4.6 ± 1.6 nM
16 | O=C(COc1ccc(-c2ccccc2)cc1)Nc1ccc(-c2nc3ncccc3[nH]2)cc1 [4r, N-(4-(1H-imidazo[4,5-b]pyridin-2-yl)phenyl)-2-([1,1'-biphenyl]-4-yloxy)acetamide] | 80 ± 2 | effect of pre-incubation on inhibition curve (time dependence) [1]: reduced maximal inhibition; solubility thermodynamic [2]: 20 µM (≈ 8.41 µg/mL)
17 | O=C(COc1ccc(-c2ccccc2)cc1)Nc1cccc(-c2nc3ncccc3[nH]2)c1 [4o, N-(3-(1H-imidazo[4,5-b]pyridin-2-yl)phenyl)-2-([1,1'-biphenyl]-4-yloxy)acetamide] | 71 ± 9 | 
18 | CCC/C=C/COCC(=O)Nc1ccc(-c2nc3ncccc3o2)cc1 [4k, (E)-2-(hex-2-en-1-yloxy)-N-(4-(oxazolo[4,5-b]pyridin-2-yl)phenyl)acetamide] | 46 ± 9 | 
19 | O=C(COc1ccc(C2CCCCC2)cc1)Nc1cccc(-c2nc3ncccc3o2)c1 [4g, 2-(4-Cyclohexylphenoxy)-N-(3-(oxazolo[4,5-b]pyridin-2-yl)phenyl)acetamide] | 100 | 
20 | O=C(COc1ccccc1)Nc1cccc(-c2nc3ncccc3o2)c1 [4d, N-(3-(oxazolo[4,5-b]pyridin-2-yl)phenyl)-2-phenoxyacetamide] | 100 | 
21 | CCC/C=C/COCC(=O)Nc1cccc(-c2nc3ncccc3[nH]2)c1 [4q, (E)-N-(3-(1H-imidazo[4,5-b]pyridin-2-yl)phenyl)-2-(hex-2-en-1-yloxy)acetamide] | 100 | 
22 | CCC/C=C/COCC(=O)Nc1ccccc1-c1nc2ncccc2[nH]1 [4n, (E)-N-(2–(1H-imidazo[4,5-b]pyridin-2-yl)phenyl)-2-(hex-2-en-1-yloxy)acetamide] | 100 | 
